Where two headings read alike, the source gives them in different places.
Assays:
[1] = Solubility in solvents by UHPLC assay; format: physicochemical
Text: The tool called “Early phase solvent selection: solubility prediction” was used. This tool allows to predict the solubility of material in a large scope of solvents, knowing the solubility in some of them. The solubility can be also predicted in function of temperature, and for solvent combinations. The solubility prediction is based on similar structures moieties between solvents. Therefore, the measurement of solubility in 16 different solvents allowed for the estimate of solubility in up to 106 solvents. […] Solubilities were obtained by UHPLC assay. Among these 106 solvents, 27 seemed interesting as solvent or antisolvent. DMF. NMP and DMSO are the solvents in which rofecoxib (RXB-201) is the most soluble (>100 g/L at 30° C.). Nevertheless, ICH Q3C, DMF and NMP were less suitable than DMSO which remains the best option. Thus, no changes were implemented regarding the solvent.
Since the main purpose of the recrystallization is to decrease the rate of one single identified impurity, 4-[4-(methylsulfinyl)phenyl]-3-phenyl-2(5H)-furanone solubilities were measured in a couple of probable antisolvents identified in Table 9. A reference of 4-[4-(methylsulfinyl)phenyl]-3-phenyl-2(5H)-furanone (CHG P059-038) was synthesized at lab on 8 g for this study, with 98% purity, as per International Patent Application No. WO/2005/120584, which is incorporated herein in its entirety. Table 10 below reports the solubility of 4-[4-(methylsulfinyl)phenyl]-3-phenyl-2(5H)-furanone in various antisolvent candidates. It is noteworthy that 4-[4-(methylsulfinyl)phenyl]-3-phenyl-2(5H)-furanone is very soluble in acetic acid. […] Alcohols can alternatively be employed as antisolvent.

[2] = Stability of rofecoxib drug substance at 40° C./75% RH; format: physicochemical; conditions: Lot 16P3140F851
Description: (§1) Stability data for rofecoxib drug substance (Lot 16P3140F851) are provided in Tables 6A-B. If an individual impurity is ≥0.05% area, the result is reported to the nearest 0.01%. If an individual impurity is <0.02% (LOD), the result is reported as “not detected” (ND). If an individual impurity is <0.05% area but ≥0.02% area, the result is recorded as <0.05% area.

[3] = Stability of rofecoxib drug substance at 25° C./60% RH; format: physicochemical; conditions: Lot 16P3140F851
Description: as §1

[4] = RXB-Hydroxy formation from rofecoxib in DMSO with Na2SO3 under air (UHPLC); format: physicochemical; conditions: 5.5V DMSO
Description: Trials were performed to check the effect of both temperature and sodium sulfite on the 4-[4-(methylsulphonyl)phenyl]-3-phenyl-5-hydroxyfuran-2-one rate. Pure rofecoxib (RXB-201) (F851) was solubilized in 5.5V DMSO. on which Na2SO3 was added. Three amounts of Na2SO3 were tested: • 0%: rofecoxib (RXB-201) post filtration • 0.5%: ashes result obtained on pilot batch (crude rofecoxib (RXB-201) F801) • 1.5%: ashes result obtained on APG P052-110 batch
Samples were subjected to 2 different temperatures under air atmosphere: • 40° C.: current heating temperature for polishing filtration • 60° C.: possible future temperature for polishing filtration if DMSO volumes are reduced for better productivity.

[5] = Stability of isolated crude rofecoxib towards hydrogen peroxide; format: physicochemical; conditions: crude unwashed, stored at room temperature for 17 days (CHG P059-104)
Description: Several verifications were performed to confirm the feasibility of hydrogen peroxide removal: • No corrosion of Stainless steel 316L in contact with crude rofecoxib (RXB-201) mother liquors (enriched in excess hydrogen peroxide) after 10 days at 20° C. […] Crude washings seem to be efficient enough to remove peroxide traces in cake washings. • Stability of isolated crude rofecoxib (RXB-201) towards hydrogen peroxide is very satisfying. Crude unwashed rofecoxib (RXB-201) was stored at room temperature for 17 days. No evolution of UHPLC profile was observed (CHG P059-104).

[6] = tested on: Salmonella typhimurium (TA98, TA100, TA1535, TA97a) and E. coli (WP2, WP2uvrA, WP2 uvrA pKM101); conditions: with and without S9, up to 6000 μg/plate; cited from earlier work
[7] = tested on: Chinese hamster lung cells; conditions: all concentrations tested, with and without S-9; cited from earlier work
[8] = tested on: CHO cells; conditions: 25 to 125 μM with S-9 or 25 to 100 μM without S-9; cited from earlier work
[9] = tested on: mice; conditions: dose levels up to 60 mg/kg; cited from earlier work
[10] = tested on: rats; conditions: dose levels up to 8 mg/kg; cited from earlier work
[11] = in vivo; cited from earlier work
[12] = tested on: arthritis model; conditions: in vivo; cited from earlier work
[13] = tested on: bacterial mutagenicity; conditions: cited from earlier work
[14] = analog data from software training sets / literature

For CS(=O)(=O)c1ccc(C2=C(c3ccccc3)C(=O)OC2)cc1 [Rofecoxib, 4-[4-(methylsulfonyl)phenyl]-3-phenyl-2(5H)-furanone], the solubility ([1]; DMF, 30 °C) was 133 mg/mL, the solubility ([1]; DMF, 30 °C, organic solvent or mixture, DMF, 30 °C, read-out: Solubility) was > 100 mg/mL and the solubility ([1]; DMSO, 20 °C, organic solvent or mixture, DMSO, 20 °C, read-out: Solubility) was 93 mg/mL. The solubility ([1]; DMSO, 30 °C) was 107 mg/mL, the solubility ([1]; DMSO, 30 °C, organic solvent or mixture, DMSO, 30 °C, read-out: Solubility) was > 100 mg/mL and the solubility ([1]; DMSO, 40 °C, organic solvent or mixture, DMSO, 40 °C, read-out: Solubility) was 133 mg/mL. For the same molecule, the solubility ([1]; DMSO, 50 °C, organic solvent or mixture, DMSO, 50 °C, read-out: Solubility) was 181 mg/mL, the solubility ([1]; DMSO, 60 °C, organic solvent or mixture, DMSO, 60 °C, read-out: Solubility) was 181 mg/mL and the solubility ([1]; NMP, 30 °C, organic solvent or mixture, NMP, 30 °C, read-out: Solubility) was > 100 mg/mL. The solubility ([1]; acetic acid, 30 °C, organic solvent or mixture, Acetic acid, 30 °C, read-out: Solubility) was 5 mg/mL, the solubility ([1]; acetone, 30 °C, organic solvent or mixture, Acetone, 30 °C, read-out: Solubility) was 28 mg/mL and the solubility ([1]; acetonitrile, 30 °C, organic solvent or mixture, Acetonitrile, 30 °C, read-out: Solubility) was 41 mg/mL. The solubility ([1]; anisole, 30 °C, organic solvent or mixture, Anisole, 30 °C, read-out: Solubility) was 22 mg/mL, the solubility ([1]; chlorobenzene, 30 °C, organic solvent or mixture, Chlorobenzene, 30 °C, read-out: Solubility) was 2.3 mg/mL and the solubility ([1]; dichloromethane, 30 °C, organic solvent or mixture, Dichloromethane, 30 °C, read-out: Solubility) was 45 mg/mL. The solubility ([1]; ethyl acetate, 30 °C, organic solvent or mixture, Ethyl acetate, 30 °C, read-out: Solubility) was 4.7 mg/mL, the solubility ([1]; methanol, 30 °C, organic solvent or mixture, Methanol, 30 °C, read-out: Solubility) was 1.8 mg/mL and the solubility ([1]; n-butanol, 30 °C, organic solvent or mixture, n-butanol, 30 °C, read-out: Solubility) was 0.2 mg/mL. For the same molecule, the solubility ([1]; n-heptane, 30 °C, organic solvent or mixture, n-heptane, 30 °C, read-out: Solubility) was < 0.1 mg/mL, the solubility ([1]; toluene, 30 °C, organic solvent or mixture, Toluene, 30 °C, read-out: Solubility) was 1.2 mg/mL and the solubility ([1]; water, 30 °C, water, 30 °C, read-out: Solubility) was < 0.1 mg/mL. For the same molecule, the “Solubility in water (descriptive)” value ([1]; water, insoluble regarding US pharmacopeia) was “very poorly soluble”, the Appearance ([2]; 1 Month) was “Off-white” and the “Assay by HPLC” value ([2]; 1 Month) was 99.6 w/w. For the same molecule, the “Impurities by HPLC: RRT ~ 0.5” value ([2]; 1 Month) was <0.05 % area, the “Impurities by HPLC: RXB-furanone” value ([2]; 1 Month) was 0.08 % area and the “Impurities by HPLC: Total Impurities” value ([2]; 1 Month) was 0.11 % area. For the same molecule, the “Water Content by Karl Fischer” value ([2]; 1 Month) was 0.07%, the Appearance ([2]; 3 Month) was “White” and the “Assay by HPLC” value ([2]; 3 Month) was 100.5 w/w. For the same molecule, the “Impurities by HPLC: RRT ~ 0.5” value ([2]; 3 Month) was <0.05 % area, the “Impurities by HPLC: RXB-furanone” value ([2]; 3 Month) was 0.08 % area and the “Impurities by HPLC: Total Impurities” value ([2]; 3 Month) was 0.12 % area. For the same molecule, the “Water Content by Karl Fischer” value ([2]; 3 Month) was 0.09%, the Appearance ([2]; Initial) was “Off-white” and the “Assay by HPLC” value ([2]; Initial) was 99.8 w/w. The “Impurities by HPLC: RRT ~ 0.5” value ([2]; Initial) was <0.05 % area, the “Impurities by HPLC: RXB-furanone” value ([2]; Initial) was 0.08 % area and the “Impurities by HPLC: Total Impurities” value ([2]; Initial) was 0.11 % area. For the same molecule, the “Polymorphic form by XRPD” value ([2]; Initial) was “Form A”, the “Water Content by Karl Fischer” value ([2]; Initial) was 0.12% and the Appearance ([3]; 3 Month) was “White”. The “Assay by HPLC” value ([3]; 3 Month) was 100.4 % w/w, the “Impurities by HPLC: RRT ~ 0.5” value ([3]; 3 Month) was <0.05 % area and the “Impurities by HPLC: RXB-furanone” value ([3]; 3 Month) was 0.08 % area. For the same molecule, the “Impurities by HPLC: Total Impurities” value ([3]; 3 Month) was 0.11 % area, the “Water Content by Karl Fischer” value ([3]; 3 Month) was 0.08% and the Appearance ([3]; Initial) was “Off-white”. For the same molecule, the “Assay by HPLC” value ([3]; Initial) was 99.8 % w/w, the “Impurities by HPLC: RRT ~ 0.5” value ([3]; Initial) was <0.05 % area and the “Impurities by HPLC: RXB-furanone” value ([3]; Initial) was 0.08 % area. The “Impurities by HPLC: Total Impurities” value ([3]; Initial) was 0.11 % area, the “Polymorphic form by XRPD” value ([3]; Initial) was “Form A” and the “Water Content by Karl Fischer” value ([3]; Initial) was 0.12%. The “RXB-Hydroxy (UPLC)” value ([4]; 0% Na2SO3 (residue on ignition), IPC1 (3 h), 40° C.) was 0.08 % a/a, the “RXB-Hydroxy (UPLC)” value ([4]; 0% Na2SO3 (residue on ignition), IPC1 (3 h), 60° C.) was 0.16 % a/a and the “RXB-Hydroxy (UPLC)” value ([4]; 0% Na2SO3 (residue on ignition), IPC2 (6 h), 40° C.) was 0.14 % a/a. The “RXB-Hydroxy (UPLC)” value ([4]; 0% Na2SO3 (residue on ignition), IPC2 (6 h), 60° C.) was 0.17 % a/a, the “RXB-Hydroxy (UPLC)” value ([4]; 0.5% Na2SO3 (residue on ignition), IPC1 (3 h), 40° C.) was 0.30 % a/a and the “RXB-Hydroxy (UPLC)” value ([4]; 0.5% Na2SO3 (residue on ignition), IPC1 (3 h), 60° C.) was 0.35 % a/a. The “RXB-Hydroxy (UPLC)” value ([4]; 0.5% Na2SO3 (residue on ignition), IPC2 (6 h), 40° C.) was 0.45 % a/a, the “RXB-Hydroxy (UPLC)” value ([4]; 0.5% Na2SO3 (residue on ignition), IPC2 (6 h), 60° C.) was 0.52 % a/a and the “RXB-Hydroxy (UPLC)” value ([4]; 1.5% Na2SO3 (residue on ignition), IPC1 (3 h), 40° C.) was 0.38 % a/a. For the same molecule, the “RXB-Hydroxy (UPLC)” value ([4]; 1.5% Na2SO3 (residue on ignition), IPC1 (3 h), 60° C.) was 0.67 % a/a, the “RXB-Hydroxy (UPLC)” value ([4]; 1.5% Na2SO3 (residue on ignition), IPC2 (6 h), 40° C.) was 0.60 % a/a and the “RXB-Hydroxy (UPLC)” value ([4]; 1.5% Na2SO3 (residue on ignition), IPC2 (6 h), 60° C.) was 0.73 % a/a. For the same molecule, the “Evolution of UHPLC profile” value [5] was “No evolution”, the Mutagenicity [6] was “negative” and the “Mutations in Chinese hamster lung cells” value [7] was “negative”. For the same molecule, the “Percent of aberrant cells” value [8] was “no significant increases”, the Carcinogenicity [9] was “not carcinogenic” and the Carcinogenicity [10] was “not carcinogenic”.

With C[S+]([O-])c1ccc(C2=C(c3ccccc3)C(=O)OC2)cc1 (stereo not drawn) [A-STG4-01, 4-(4-(methylsulfinyl)phenyl)-3-phenylfuran-2(5H)-one] the solubility ([1]; acetic acid, 30 °C, organic solvent or mixture, Table 10: Acetic acid, 30 °C, read-out: Solubility) was 1540 mg/mL, the solubility ([1]; acetic acid, organic solvent or mixture, acetic acid, temperature not stated, read-out: Solubility in acetic acid) was > 1000 mg/mL and the solubility ([1]; ethanol, 30 °C, organic solvent or mixture, Table 10: Ethanol, 30 °C, read-out: Solubility) was 28 mg/mL. For the same molecule, the solubility ([1]; isopropanol (IPA), 30 °C, organic solvent or mixture, Table 10: IPA, 30 °C, read-out: Solubility) was 0.2 mg/mL, the solubility ([1]; n-butanol, 30 °C, organic solvent or mixture, Table 10: n-Butanol, 30 °C, read-out: Solubility) was 14 mg/mL and the solubility ([1]; water, 30 °C, water, Table 10: Water, 30 °C, read-out: Solubility) was 0.7 mg/mL. For the same molecule, the “Pharmacokinetic profile compared with rofecoxib” value [11] was “slightly improved” and the “Pharmacological activity in an arthritis model compared with rofecoxib” value [12] was “better”.

In the case of c1ccc(SCCSc2ccccc2)cc1 [1,2-bis(phenylthio)ethane], the Experimental mutagenicity [13, 14] is given as “non-mutagenic”.

For O=C(CBr)c1ccccc1 [LS-188087, 2-bromoacetophenone], the Experimental mutagenicity [13] is given as “negative”.

In the case of CS(=O)(=O)c1ccc(C(=O)CBr)cc1 [LS-394467, 2-Bromo-1-[4-(methylsulfonyl)phenyl]-1-ethanone], the Experimental mutagenicity [13, 14] is given as “positive”.

In the case of N#CCc1ccccc1 [A-RSM2-01, 2-phenylacetonitrile], the Experimental mutagenicity [13, 14] is listed as “negative”.

Reference: patent US11617735B2, “Purified forms of rofecoxib, methods of manufacture and use” (Tremeau Pharmaceuticals, Inc., priority 2018, dated 2023)
